Laboratory results published in the NIST ThermoML archive (doi:10.1016/j.fluid.2011.07.005).
± gives the expanded uncertainty stated by the source.

Legend:
[1] = 298.15 K; 101.33 kPa; Liquid; Vibrating tube method
[2] = refractive index (Na D-line) (dimensionless); settings: 298.15 K; 101.33 kPa; Liquid; Standard Abbe refractometry
[3] = refractive index (Na D-line) (dimensionless); xn = mol fraction of the nth substance listed; settings: 298.15 K, 101.3 kPa, Liquid, Standard Abbe refractometry
[4] = xn = mol fraction of the nth substance listed; settings: 298.15 K, 101.3 kPa, Liquid, Vibrating tube method

CC(CC(C)(C)C)CP(=O)([O-])CC(C)CC(C)(C)C.CCCCCCCCCCCCCC[P+](CCCCCC)(CCCCCC)CCCCCC
Settings | mass density [kg/m3] | refractive index
[1] | 886.43 ± 0.24 | –
[2] | – | 1.47125 ± 0.00039

CCCCCCCCCCCCCC[P+](CCCCCC)(CCCCCC)CCCCCC.[Cl-] [trihexyl(tetradecyl)phosphonium chloride]
Settings | mass density [kg/m3] | refractive index
[1] | 891.82 ± 0.24 | –
[2] | – | 1.48175 ± 0.00039

CCCCCCCCCCCCCC[P+](CCCCCC)(CCCCCC)CCCCCC.[Cl-] [trihexyl(tetradecyl)phosphonium chloride] + CC(C)OC(C)C
Settings | mass density, [4] [kg/m3] | refractive index, [3]
x2 = 0.0515 | 889.99 ± 0.23 | 1.4808 ± 0.0004
x2 = 0.0994 | 888.06 ± 0.22 | 1.4794 ± 0.0004
x2 = 0.2017 | 883.38 ± 0.21 | 1.4763 ± 0.0004
x2 = 0.2989 | 878.11 ± 0.2 | 1.4726 ± 0.0004
x2 = 0.4018 | 871.47 ± 0.19 | 1.4678 ± 0.0004
x2 = 0.4997 | 863.46 ± 0.19 | 1.4641 ± 0.0004
x2 = 0.5994 | 852.63 ± 0.18 | 1.4553 ± 0.0004
x2 = 0.7017 | 836.78 ± 0.18 | 1.4478 ± 0.0004
x2 = 0.8004 | 814.03 ± 0.18 | 1.4384 ± 0.0004
x2 = 0.8993 | 778.62 ± 0.19 | 1.4076 ± 0.0004
x2 = 0.9491 | 752.99 ± 0.21 | 1.3881 ± 0.0004

CCCCCCCCCCCCCC[P+](CCCCCC)(CCCCCC)CCCCCC.[Cl-] [trihexyl(tetradecyl)phosphonium chloride] + CCO
Settings | mass density, [4] [kg/m3] | refractive index, [3]
x2 = 0.0616 | 891.17 ± 0.23 | 1.4814 ± 0.0004
x2 = 0.1053 | 890.69 ± 0.22 | 1.4807 ± 0.0004
x2 = 0.2113 | 889.27 ± 0.21 | 1.4789 ± 0.0004
x2 = 0.3038 | 887.74 ± 0.2 | 1.4764 ± 0.0004
x2 = 0.4034 | 885.65 ± 0.19 | 1.4742 ± 0.0004
x2 = 0.499 | 882.9 ± 0.18 | 1.4709 ± 0.0004
x2 = 0.6004 | 878.9 ± 0.18 | 1.466 ± 0.0004
x2 = 0.7038 | 872.77 ± 0.17 | 1.4585 ± 0.0004
x2 = 0.7993 | 863.65 ± 0.17 | 1.4473 ± 0.0004
x2 = 0.8999 | 845.08 ± 0.17 | 1.425 ± 0.0004
x2 = 0.9497 | 826.4 ± 0.19 | 1.4058 ± 0.0004
x2 = 0.9808 | 805.94 ± 0.21 | 1.3801 ± 0.0004
